Four molecules from ChEMBL document CHEMBL1134141, “Diaminopurine-acridine heterodimers for specific recognition of abasic site containing DNA. Influence on the biological activity of the position of the linker on the purine ring” (Bioorg Med Chem Lett, 2001) can be followed below.

The subject of one assay is L1210. Description: The compound was evaluated for cytotoxicity against L1210 cell line. The following applies: Mus musculus. Type of assay: functional, cell-based.
For assay [1], the system named is A549. Description: The compound was evaluated for cytotoxicity against A549 cell line. The settings on record: Homo sapiens. It counts as functional, cell-based.
The test system of assay [2] is A549. Nature of the assay: Cytotoxicity of compound in synergy in BCNU (10 uM) against A549 cell line. It counts as functional, Homo sapiens.
Assay [3] deals with A549. Nature of the assay: Cytotoxicity of compound in synergy in 94% BCNU (10 uM) against A549 cell line. Type of assay: functional, Homo sapiens.

Structures are written as SMILES. Some results are limits rather than exact numbers.

As to `COc1ccc2nc3cc(Cl)ccc3c(NCCCC/N=C(\N)NCCCNc3nc(N)c4[nH]cnc4n3)c2c1`, the results for the concentration for half-maximal inhibition (IC50) in the assay on L1210 and with A549 [1] were 36 µM and 5 µM, respectively.

Take `COc1ccc2nc3cc(Cl)ccc3c(NCCCC/N=C(\N)NCCCNc3[nH]c(N)nc4ncnc3-4)c2c1`: the values for the IC50 with L1210 and in the assay with A549 [1] were above 100 µM and 5 µM, respectively.

With `COc1ccc2nc3cc(Cl)ccc3c(NCCCC/N=C(\N)NCCCn3cnc4c(N)nc(N)nc43)c2c1`, the IC50 (as a rule, the concentration at which inhibition is half-maximal) amounted to 60 µM in the assay with L1210 and 6.5 µM with A549 [1]. The Synergy in the assay on A549 [2] is 16%.

As for `COc1ccc2nc3cc(Cl)ccc3c(NCCCN(CCCN(CCn3cnc4c(N)ncnc43)C(=N)N)C(=N)N)c2c1`, the half-maximal inhibitory concentration (IC50) with L1210 stood at 33 µM; in the assay on A549 [1], 10 µM. Also, the Synergy with A549 [3] was 94%.
